The results in this text go back to patent US11160797B2, “Pyridinone derivatives and their use as selective ALK-2 inhibitors” (NOVARTIS AG, priority 2017, dated 2021).

One assay concerns the target ALK5 (aa162-503) (Homo sapiens (Human), UniProt P36897). Put plainly: Caliper biochemical peptide phosphorylation assay, ALK5. Conditions: 15 uM ATP. The gist of the method:
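Baculovirus-expressed human GS+kinase-domain constructs (10 nM) with 2 uM fluorescein-labelled peptide and 15 uM ATP in 50 mM Hepes pH 7.5, 1 mM MgCl2, 12 mM MnCl2, 1 mM DTT, 10 uM Na3VO4, 60 min at 30 °C. EDTA stop; phospho/unphosphorylated peptide separated by microfluidic electrophoresis, r = p/(p+s); IC50 at half-maximal signal inhibition.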

Assay [1] has as its target ALK2 FOP mutant (aa172-499 R206H) (Homo sapiens (Human), UniProt Q04771, R206H). Kind of assay: Caliper biochemical peptide phosphorylation assay, ALK2 FOP. As to conditions: Caliper peptide phosphorylation, R206H, 15 uM ATP; read-out: ALK2 FOP EPK IC50.
Assay [2] has as its target T1, wild-type ALK2 (aa172-499) (Homo sapiens (Human), UniProt Q04771). Kind of assay: Caliper biochemical peptide phosphorylation assay, ALK2. As to conditions: Caliper peptide phosphorylation, 15 uM ATP; read-out: ALK2 IC50.
Another assay concerns male Sprague Dawley rats. Kind of assay: Turpentine oil-induced increase in serum hepcidin in rats. The class given is in vivo, rat. Conditions: for Serum hepcidin concentration: 24 h post-TO.
In another assay the test system is ALK2(Q207D) mice. Put plainly: ALK2-dependent heterotopic ossification in ALK2(Q207D) transgenic mice. Conditions: 3 and 5 weeks post-induction, 10 mg/kg b.i.d. oral. In kind it is in vivo, mouse.
In assay [3] the test system is 18-month-old Wistar female rats. Kind of assay: Bone gain in aged rats (pQCT and micro-CT, proximal tibia metaphysis). As to conditions: 5 mg/kg q.d. oral, 8 weeks, mean ± SEM. The class given is in vivo, rat. As to the method: To assess the bone anabolic potential of compound A, its therapeutic efficacy in aged female rats as a model of age-related human osteoporosis and other low bone mass conditions was tested. To this end, 18-month-old Wistar female rats (n=8-9 rats per group; body weight range: 330-460 g) were subjected to two-month once daily oral treatment with compound A (5 mg/kg q.d.) or vehicle (sodium carboxymethyl cellulose:water:Tween 80, 0.5:99:0.5). Rats were housed at 25° C. with a 12:12 h light-dark cycle and were fed a standard rodent diet containing 18.2% protein and 3.0% fat with an energy content of 15.8 MJ/kg (3890, Provimi Kliba SA) with food and water provided ad libitum. Treatment efficacy was determined by in vivo peripheral quantitative computed tomography (pQCT) and micro-computed tomography (micro-CT) in the left proximal tibia metaphysis under isoflurane inhalation narcosis (Stratec-Norland XCT-2000 pQCT; voxel size: 0.1 mm×0.1 mm×0.5 mm; vivaCT40 instrument, Scanco Medical AG; 12.5 μm resolution) after 8 weeks of treatment. […] The latter was related to enhanced trabecular thickness, but not number. Thus, compound A is bone anabolic in the aged skeleton.

Assay [4] addresses T1, wild-type ALK2 (aa172-499). Put plainly: ADPGlo biochemical autophosphorylation assay, ALK2. As to conditions: 15 uM ATP. For orientation: In ADP-Glo the light output rises with the ADP produced.
The subject of another assay is C57BL/6J male mice. Conditions: mouse, in vivo.
In the next assay the test system is female Wistar rats. Put plainly: Achilles midpoint tenotomy-induced heterotopic ossification in rats. In kind it is in vivo, rat. As to conditions: 10 mg/kg q.d. oral. The source says: To test whether compound A was able to prevent trauma-induced heterotopic ossification (HO) of soft tissue, we tested its therapeutic efficacy in a rat model of unilateral Achilles midpoint tenotomy (Rooney et al., Matrix 12: 274-281, 1992). To this end, the left Achilles tendon of 8-week-old female Wistar rats (body weight between 190-265 g) was completely transected using a sterile scalpel (blade number 11) under isoflurane inhalation narcosis with concomitant analgesic treatment applying 0.03 mg/kg buprenorphine for 48 hours every 10-12 h subcutaneously. Preventive oral treatment with compound A (10 mg/kg q.d.) or vehicle (sodium carboxymethyl cellulose:water:Tween 80, 0.5:99:0.5) was given for 10 weeks starting on the day of surgery (n=11-12 rats per group). […] Treatment efficacy was assessed longitudinally by taking radiographs of the operated distal leg (Faxitron LX-60 system) at 4 and 10 weeks post-tenotomy. Heterotopic bone volume was quantified in vivo by micro-computed tomography (micro-CT) under isoflurane inhalation narcosis (vivaCT40 instrument, Scanco Medical AG; 17.5 μm resolution) at 6 and 9 weeks post-surgery. […]

For another assay, the target named is ALK1 (aa166-493) (Homo sapiens (Human), UniProt P37023). Kind of assay: Caliper biochemical peptide phosphorylation assay, ALK1. Conditions: 15 uM ATP.
The test system of assay [5] is HuH7 cells, BMP response element (BRE) luciferase reporter, BMP6 stimulated. Put plainly: BMP signaling reporter gene assay. The class given is cell-based. As to conditions: Homo sapiens, Huh-7; BMP6 100 ng/ml; read-out: MSD HuH7 cell BMP reporter IC50.
Method: A human liver hepatocellular carcinoma cell line (HuH7) stably transfected with a reporter plasmid consisting of the human BMP response element (BRE) from the Id1 promoter fused to a luciferase reporter gene was generated through lentiviral transduction.
Assays were performed in 384-well flat bottom polystyrene microtiter plates (cell culture treated) with sterile lids. The cells were starved through medium exchange in Blasticidine- and FCS-free medium 16 h before the assay. Prior to the assay, cells were detached from the stock flask using trypsin/EDTA and counted. A cell suspension in the same medium without Blasticidin and FCS was prepared. 2×10^4 cells in a total volume of 40 ul were added to each well of a plate already containing serial dilutions of each compound in DMSO (final DMSO concentration 0.5%). […] Assay plates are incubated for another 5 hours at 37° C., 5% CO2 before luciferase levels are measured.
The amount of expressed luciferase is quantified using the Steady-Glo® Luciferase Assay System (Promega #E2520).
The target in a further assay is ALK3 (aa198-525) (Homo sapiens (Human), UniProt P36894). Put plainly: ADPGlo biochemical autophosphorylation assay, ALK3. Conditions: 15 uM ATP.
In another assay the target is ALK6 (aa168-495) (Homo sapiens (Human), UniProt O00238). Kind of assay: Caliper biochemical peptide phosphorylation assay, ALK6. Conditions: 15 uM ATP.
ALK6 (aa168-495), sequence (O00238 168-495): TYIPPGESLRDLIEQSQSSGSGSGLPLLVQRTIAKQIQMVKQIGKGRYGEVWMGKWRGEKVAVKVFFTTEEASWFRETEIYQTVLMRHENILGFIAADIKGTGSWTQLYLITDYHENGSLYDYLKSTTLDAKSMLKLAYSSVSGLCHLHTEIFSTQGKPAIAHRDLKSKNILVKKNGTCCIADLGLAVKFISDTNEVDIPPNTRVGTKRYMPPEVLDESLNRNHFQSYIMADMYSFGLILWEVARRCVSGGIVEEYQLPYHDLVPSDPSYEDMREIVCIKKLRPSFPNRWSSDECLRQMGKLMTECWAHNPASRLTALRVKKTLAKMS

ALK1 (aa166-493), sequence (P37023 166-493): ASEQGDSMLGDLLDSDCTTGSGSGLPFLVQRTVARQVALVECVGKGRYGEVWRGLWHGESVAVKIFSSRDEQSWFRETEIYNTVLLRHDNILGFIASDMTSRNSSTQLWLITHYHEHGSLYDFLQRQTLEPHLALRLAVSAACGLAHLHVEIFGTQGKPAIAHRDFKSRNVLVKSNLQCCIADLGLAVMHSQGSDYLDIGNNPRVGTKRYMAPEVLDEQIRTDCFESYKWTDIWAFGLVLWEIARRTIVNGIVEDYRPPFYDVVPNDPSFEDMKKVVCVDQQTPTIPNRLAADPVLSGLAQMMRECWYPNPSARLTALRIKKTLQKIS
ALK2 FOP mutant (aa172-499 R206H), sequence (Q04771 172-499 R206H): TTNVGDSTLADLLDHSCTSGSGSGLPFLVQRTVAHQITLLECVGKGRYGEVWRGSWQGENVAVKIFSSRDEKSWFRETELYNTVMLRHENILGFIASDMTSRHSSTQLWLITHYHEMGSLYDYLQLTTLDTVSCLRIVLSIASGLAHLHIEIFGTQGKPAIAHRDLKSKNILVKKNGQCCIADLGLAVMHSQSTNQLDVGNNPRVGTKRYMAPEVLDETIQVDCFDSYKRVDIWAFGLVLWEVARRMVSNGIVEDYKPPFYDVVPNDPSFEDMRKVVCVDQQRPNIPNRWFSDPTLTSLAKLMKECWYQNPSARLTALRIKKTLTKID
T1 sequence (Q04771 172-499): as the sequence (Q04771 172-499 R206H) above, with H35R counted along it
ALK3 (aa198-525), sequence (P36894 198-525): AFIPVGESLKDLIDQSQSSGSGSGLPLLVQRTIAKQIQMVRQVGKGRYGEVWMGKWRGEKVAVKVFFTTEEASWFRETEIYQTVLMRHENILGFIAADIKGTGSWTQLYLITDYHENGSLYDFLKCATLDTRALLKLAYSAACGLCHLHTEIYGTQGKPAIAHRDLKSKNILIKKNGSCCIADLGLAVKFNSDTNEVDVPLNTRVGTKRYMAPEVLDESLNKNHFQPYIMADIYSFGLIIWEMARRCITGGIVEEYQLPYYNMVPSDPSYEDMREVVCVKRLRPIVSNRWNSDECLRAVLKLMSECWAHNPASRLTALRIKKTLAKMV
ALK5 (aa162-503), sequence (P36897 162-503): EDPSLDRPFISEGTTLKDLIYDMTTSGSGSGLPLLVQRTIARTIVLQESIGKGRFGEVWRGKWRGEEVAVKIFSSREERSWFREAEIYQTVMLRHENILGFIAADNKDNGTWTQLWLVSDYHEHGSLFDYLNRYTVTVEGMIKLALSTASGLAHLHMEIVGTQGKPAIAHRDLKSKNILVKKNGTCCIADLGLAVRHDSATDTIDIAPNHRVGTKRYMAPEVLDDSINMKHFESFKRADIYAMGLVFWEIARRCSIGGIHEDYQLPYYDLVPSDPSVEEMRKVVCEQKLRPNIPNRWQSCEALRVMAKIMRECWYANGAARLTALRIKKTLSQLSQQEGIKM
Method for male Sprague Dawley rats: Measurements of serum hepcidin concentration were performed using a custom-made LC-MRM assay.
6 hours post-TO application sublingual blood samples were taken and serum was prepared from whole blood using clot activator centrifugation tubes (Sarstedt). […] 24 h post-TO application rats were sacrificed by CO2 overdosing and blood was isolated by venipuncture for serum preparation as described above. […] Statistical analyses were performed using GraphPad Prism software (GraphPad Software, Inc., La Jolla, Calif.) by two-way repeated measurement analysis of variance followed by Dunnett's multiple comparisons post-hoc test comparing treatment groups to the vehicle control group.

Consider `CC(C)n1cc(-c2cncc(-c3ccc4c(c3)CC(=O)N4C)c2)ccc1=O` [Example 1, 5-(1′-isopropyl-6′-oxo-1′,6′-dihydro-[3,3′-bipyridin]-5-yl)-1-methylindolin-2-one], for which half-maximal inhibition against ALK5 (aa162-503) (IC50) required 2.6 µM. Besides, in assay [1], the IC50 stood at 0.09 µM. Also, the IC50 in [2] was found to be 0.11 µM. Further, in the assay with male Sprague Dawley rats (6 hours post-TO, 3 or 10 mg/kg p.o.), the Serum hepcidin levels result was “strongly suppressed”. For the same molecule, the Serum hepcidin concentration result in the assay with male Sprague Dawley rats (3 mg/kg p.o.) is on record as “returned to levels of vehicle-treated TO-challenged rats”. In the assay on male Sprague Dawley rats (10 mg/kg p.o., p<0.001), the Serum hepcidin concentration entry is “significantly reduced”. In the assay with ALK2(Q207D) mice, the “Females in which heterotopic bone was absent (micro-CT)” value is given as “four of five” and the “Heterotopic bone (total heterotopic bone volume, micro-CT), males” value is “absent”. Further, the “Female mice with radiographic evidence of HO” value with ALK2(Q207D) mice (vehicle 67%) is recorded as “one out of five”. Further, the “Male mice with radiographic evidence of HO” value in the assay with ALK2(Q207D) mice (vehicle 83%) is listed as “none”. For the same molecule, in assay [3] (micro-CT), the “Cancellous BV/TV, %-change versus baseline” value is 8.9 ± 3.0 %; the “Cortical thickness, %-change versus baseline” value is recorded as 12.0 ± 2.2 %; the “Total BMD, %-change versus baseline” value is recorded as 5.6 ± 0.6 %; the “Trabecular number, %-change versus baseline” value is −0.6 ± 5.4%. In [3] (micro-CT), the “Trabecular thickness, %-change versus baseline” value was determined as 11.1 ± 2.9 %. The “Total BMC, %-change versus baseline” value in [3] (pQCT) is 4.3 ± 1.7 %. The molecule also gave an IC50 in [4] of 0.11 µM. Also, in the assay on C57BL/6J male mice, the Blood hemoglobin result is listed as “significantly improved” and the Hematocrit entry is reported as “significantly improved”. The “Animals with radiographic evidence of beginning HO” value in the assay on female Wistar rats (4 weeks post-tenotomy, vehicle 100%) was 67%. In addition, the “Total heterotopic bone volume” value in the assay with female Wistar rats (6 and 9 weeks post-surgery, versus vehicle) is “significant reduction of HO”.

With `CCC(CC)Cn1cc(-c2cncc(-c3ccc4c(c3)CC(=O)N4C)c2)ccc1=O` [Example 13, 5-(1′-(2-ethylbutyl)-6′-oxo-1′,6′-dihydro-[3,3′-bipyridin]-5-yl)-1-methylindolin-2-one], the IC50 was more than 10 µM at ALK5 (aa162-503); 0.57 µM in assay [1]; 5.3 µM against ALK1 (aa166-493); 0.62 µM in assay [2]; 0.79 µM in assay [5]; 8.5 µM against ALK3 (aa198-525). The results for the IC50 (in [4]; on ALK6 (aa168-495)) were 0.68 µM and more than 10 µM, respectively.

`CC(C)CN1C(=O)Cc2cc(-c3cncc(-c4ccc(=O)n(C(C)C)c4)c3)ccc21` [Example 24, 1-Isobutyl-5-(1′-isopropyl-6′-oxo-1′,6′-dihydro-[3,3′-bipyridin]-5-yl)indolin-2-one]: the IC50 against ALK5 (aa162-503) stood at 1.9 µM; in [1], 0.06 µM; against ALK1 (aa166-493) it was 0.42 µM; in assay [2], 0.07 µM; in [5] it was 0.06 µM; at ALK3 (aa198-525), 0.3 µM. Moreover, the IC50 in [4] came out at 0.067 µM; against ALK6 (aa168-495), 0.8 µM.

As for `CC(C)CCn1cc(-c2cncc(-c3ccc4c(c3)CC(=O)N4C)c2)ccc1=O` [Example 17, 5-(1′-isopentyl-6′-oxo-1′,6′-dihydro-[3,3′-bipyridin]-5-yl)-1-methylindolin-2-one], the IC50 is more than 10 µM against ALK5 (aa162-503); 0.91 µM in assay [1]; 7 µM against ALK1 (aa166-493); 0.92 µM in assay [2]; 1.2 µM in assay [5]; more than 15.1 µM on ALK3 (aa198-525). Further, the IC50 was 1.1 µM in [4] and more than 10 µM against ALK6 (aa168-495).

Turning to `CC(C)n1cc(-c2cncc(-c3ccc4c(c3)CS(=O)(=O)N4C)c2)ccc1=O` [Example 48, 1-isopropyl-5′-(1-methyl-2,2-dioxido-1,3-dihydrobenzo[c]isothiazol-5-yl)-[3,3′-bipyridin]-6(1H)-one], the IC50 against ALK5 (aa162-503) stood at 2.4 µM; in assay [1], 0.06 µM; against ALK1 (aa166-493) it was 0.21 µM; in assay [2] it was 0.06 µM; in [5], 0.083 µM; against ALK3 (aa198-525), 0.283 µM. Also, the IC50 in [4] was found to be 0.071 µM; against ALK6 (aa168-495) it was 1 µM.

As to `CC(C)n1nc(-c2cncc(-c3ccc4c(c3)CC(=O)N4C)c2)ccc1=O` [Example 44, 5-(5-(1-isopropyl-6-oxo-1,6-dihydropyridazin-3-yl)pyridin-3-yl)-1-methylindolin-2-one], the IC50 against ALK5 (aa162-503) was found to be 5.7 µM; in assay [1], 0.08 µM; against ALK1 (aa166-493), 0.67 µM; in assay [2] it was 0.09 µM; in assay [5], 0.23 µM; at ALK3 (aa198-525), 1 µM. The IC50 was found to be 0.11 µM in assay [4] and 3.05 µM on ALK6 (aa168-495).

Regarding `CC(C)n1cc(-c2cncc(-c3ccc4c(c3)CC(=O)N4CC3CCC3)c2)ccc1=O` [Example 38, 1-(cyclobutylmethyl)-5-(1′-isopropyl-6′-oxo-1′,6′-dihydro-[3,3′-bipyridin]-5-yl)indolin-2-one], the IC50 was 3.4 µM on ALK5 (aa162-503); 0.06 µM in assay [1]; 0.64 µM against ALK1 (aa166-493); 0.06 µM in assay [2]; 0.1 µM in assay [5]; 0.54 µM on ALK3 (aa198-525). Moreover, the IC50 in assay [4] is 0.13 µM; against ALK6 (aa168-495) it was 1.1 µM.

As a reminder, the IC50 is the concentration that inhibits the measured activity by half.
